Reference: patent US4732983A, “Pyschotropic polycyclic imides” (American Home Products Corporation, priority 1987, dated 1988)
Read-outs that look alike come from different tables or passages of the source.

Experiments:
rats = assay: Conditioned avoidance, discrete trial (lever press substituted for shelf-jump), Avoidance Block; assay type: in vivo, rat; conditions: for ED50: Rattus norvegicus, po, read-out: Conditioned Avoidance Discrete Trial AB50 (Avoidance Block); for Conditioned Avoidance Discrete Trial AB50 (Avoidance Block): p.o.
[1] = target: T1, 5-HT1A serotonin receptor (Rattus norvegicus, UniProt P19327); assay: Inhibition of [3H]8-OH DPAT binding
T1 construct: 44: 1685-1696, 1985; from tissue
T1 sequence (P19327 1-422): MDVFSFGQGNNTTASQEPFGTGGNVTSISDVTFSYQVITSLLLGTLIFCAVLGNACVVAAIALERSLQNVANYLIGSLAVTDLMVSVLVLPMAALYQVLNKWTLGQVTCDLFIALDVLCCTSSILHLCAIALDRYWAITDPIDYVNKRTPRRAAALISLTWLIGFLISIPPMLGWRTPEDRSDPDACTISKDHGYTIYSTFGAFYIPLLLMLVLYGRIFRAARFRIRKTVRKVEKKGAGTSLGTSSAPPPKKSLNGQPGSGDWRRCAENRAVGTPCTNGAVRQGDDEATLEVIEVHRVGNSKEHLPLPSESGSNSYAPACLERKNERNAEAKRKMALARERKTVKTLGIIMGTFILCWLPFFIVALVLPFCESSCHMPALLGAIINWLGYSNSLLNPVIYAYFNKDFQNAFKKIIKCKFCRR

[2] = system: CF-1 mice (Charles River); assay: Antagonism of apomorphine-induced stereotyped behavior and climbing; assay type: in vivo, mouse; conditions: for ED50: Mus musculus, po; for ED50 / Apomorphine Antagonism ED50, stereotypy / Apomorphine Antagonism ED50, climbing: apomorphine 1 mg/kg s.c.; for Apomorphine Antagonism ED50, stereotypy / Apomorphine Antagonism ED50, climbing: p.o.; for ratio of the ED50 for stereotyped behavior to the ED50 for climbing: apomorphine-induced, standard antipsychotic drugs
Experimental: Readings are repeated every five minutes during a thirty minute test session. […] The ratio of the ED50 for stereotyped behavior to the ED50 for climbing is calculated.

D-2 dopamine receptor = target: T2, D-2 dopamine receptor (Rattus norvegicus, UniProt P61169); assay: [3H]spiroperidol binding inhibition, homogenized limbic brain tissue
T2 construct: homogenized limbic brain tissue is incubated with; from tissue; host or cells: homogenized limbic brain tissue
T2 sequence (P61169 whole entry): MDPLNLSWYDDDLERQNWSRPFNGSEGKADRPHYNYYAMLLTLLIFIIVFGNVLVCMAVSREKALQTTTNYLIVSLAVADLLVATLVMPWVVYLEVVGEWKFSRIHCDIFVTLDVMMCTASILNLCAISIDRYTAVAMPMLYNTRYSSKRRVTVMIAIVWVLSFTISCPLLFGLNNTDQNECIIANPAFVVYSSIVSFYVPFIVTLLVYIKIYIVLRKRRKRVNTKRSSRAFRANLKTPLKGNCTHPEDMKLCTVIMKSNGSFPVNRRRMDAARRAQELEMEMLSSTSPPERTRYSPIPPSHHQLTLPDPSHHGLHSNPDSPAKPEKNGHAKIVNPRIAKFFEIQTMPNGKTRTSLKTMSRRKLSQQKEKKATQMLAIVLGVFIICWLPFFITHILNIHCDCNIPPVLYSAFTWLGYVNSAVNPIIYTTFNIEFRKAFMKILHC

[3] = system: male CD rats (Charles River); assay: Conditioned avoidance, shelf-jump response; assay type: in vivo, rat; conditions: 40 mg/kg i.p., single dose
Experimental: The rat can avoid the electric shock by jumping to an exposed shelf (shelf-jump response). A response during the initial warning tone is considered an avoidance response, while a response during shock delivery is considered as escape response. […] The compounds of this invention were tested at a single dose (40 mg./kg. i.p.) in this procedure and were rated relative to their inhibition of conditioned avoidance responding.

[4] = read-out: Apomorphine Antagonism ED50, climbing

Molecule | Ki [1] [nM] | Apomorphine Antagonism ED50, stereotypy [2] | Conditioned Avoidance Shelf-Jump (inhibition of conditioned avoidance responding) [3] | Conditioned Avoidance Discrete Trial AB50 (Avoidance Block) (rats) | inhibition at 1 µM (D-2 dopamine receptor) [%] | Apomorphine Antagonism ED50, climbing [2] | further results
O=C1C2C(C(=O)N1CCCCN1CCN(c3ncccn3)CC1)C1C3CC4C(C32)C41 (stereo not drawn) [Example 1, Endo-2-[4-[4-(2-pyrimidinyl)-1-piperazinyl]butyl]octahydro-4,5,7-metheno-1H-pentaleno[1,2-c]pyrrole-1,3(2H)-dione] | 12.8 | inactive | ~ 80% |  |  |  | ED50 (rats): 55.7 mg/kg; ED50 [2, 4]: 17 mg/kg; [3H] Spiroperidol Binding Inhibition, % at 1 μM (D-2 dopamine receptor; 1 µM): 76%
CSc1ccc2c(c1)N(CCC1CCCCN1C)c1ccccc1S2 (stereo not shown) [thioridazine, reference compound] |  |  |  |  |  |  | ratio of the ED50 for stereotyped behavior to the ED50 for climbing [2]: 1.83
O=C1C2C3CC4C2C4C3C(=O)N1CCCCN1CCN(c2cncc(Cl)n2)CC1 [Example 6, 2-[4-[4-(6-Chloro-2-pyrazinyl)-1-piperazinyl]butyl]hexahydro-4,6,7-metheno-1H-2-pyridine-1,3-(2H)-dione] | 51 |  | ~ 80% | active | 29 |  | ED50 [2, 4]: 1.74 mg/kg; ED50 ([2]; read-out: Apomorphine Antagonism ED50, stereotypy): 40.5 mg/kg
CN(C)CCCN1c2ccccc2Sc2ccc(Cl)cc21 [chlorpromazine, reference compound] |  |  |  |  |  |  | ratio of the ED50 for stereotyped behavior to the ED50 for climbing [2]: 1.51
Exo-2-[4-[4-(6-chloro-2-pyrazinyl)-1-piperazinyl]butyl]octahydro-4,57-metheno-1H-pentaleno[1,2-c]pyrrole-1,3-(2H)-dione [Example 4] |  | inactive | > 20% | 56.16 mg/kg |  | inactive | Inhibition of [3H] 8-OH DPAT Binding, % at 1 μM ([1]; 1 μM): 76%; [3H] Spiroperidol Binding Inhibition, % at 1 μM (D-2 dopamine receptor): 54%
O=C1CC2(CCCC2)CC(=O)N1CCCCN1CCN(c2ncccn2)CC1 [buspirone, reference compound] |  |  |  |  |  |  | affinity for 5-HT1A serotonin receptor (in words) ([1]; displacement of [3H]8-OH DPAT): potent affinity
O=C(CCCN1CCC(O)(c2ccc(Cl)cc2)CC1)c1ccc(F)cc1 [haloperidol, reference compound] |  |  |  |  |  |  | ratio of the ED50 for stereotyped behavior to the ED50 for climbing [2]: 1.00
O=C1C2C(C(=O)N1CCCCN1CCN(c3cncc(Cl)n3)CC1)C1C3CC4C(C32)C41 (stereo not drawn) [Example 3, Endo-2-[4-[4-(6-chloro-2-pyrazinyl)-1-piperazinyl]butyl]octahydro-4,5,7-metheno-1H-pentaleno[1,2-c]pyrrole-1,3-(2H)-dione] | 41.9 | inactive | > 20% |  | 44 |  | ED50 (rats): 46.8 mg/kg; ED50 [2, 4]: 19 mg/kg
O=C1C2C(C(=O)N1CCCCN1CCN(c3cnccn3)CC1)C1C3CC4C(C32)C41 (stereo not drawn) [Example 5, Endo-2-[4-[4-(2-pyrazinyl)-1-piperazinyl]butyl]octahydro-4,5,7-metheno-1H-pentaleno[1,2-c]pyrrole-1,3-(2H)-dione] | 94 | inactive | ~ 80% | inactive | 25 | inactive | 
O=C1C2C(C(=O)N1CCCCN1CCN(c3ncccn3)CC1)C1C3CC4C(C32)C41 (stereo not drawn) [Example 2, Exo-2-[4-[4-(2-pyrimidinyl)-1-piperazinyl]butyl]octahydro-4,5,7-metheno-1H-pentaleno[1,2-c]pyrrole-1,3(2H)-dione] | 40 | inactive | > 20% | active |  | 15.61 mg/kg | [3H] Spiroperidol Binding Inhibition, % at 1 μM (D-2 dopamine receptor; 1 µM): 0%
O=C1C2C3CC4C2C4C3C(=O)N1CCCCN1CCN(c2ncccn2)CC1 [Example 7, 2-[4-[4-(2-Pyrimidinyl)-1-piperazinyl]butyl]hexahydro-4,6,7-metheno-1H-2-pyridine-1,3-(2H)-dione] | 16 | inactive | ~ 80% | weak | 51 | inactive | 
